Biological target: T1, Human CD73 (Homo sapiens, UniProt P21589)
T1 construct: purchased R&D Systems; host or cells: CHO cells
T1 sequence (P21589 27-549): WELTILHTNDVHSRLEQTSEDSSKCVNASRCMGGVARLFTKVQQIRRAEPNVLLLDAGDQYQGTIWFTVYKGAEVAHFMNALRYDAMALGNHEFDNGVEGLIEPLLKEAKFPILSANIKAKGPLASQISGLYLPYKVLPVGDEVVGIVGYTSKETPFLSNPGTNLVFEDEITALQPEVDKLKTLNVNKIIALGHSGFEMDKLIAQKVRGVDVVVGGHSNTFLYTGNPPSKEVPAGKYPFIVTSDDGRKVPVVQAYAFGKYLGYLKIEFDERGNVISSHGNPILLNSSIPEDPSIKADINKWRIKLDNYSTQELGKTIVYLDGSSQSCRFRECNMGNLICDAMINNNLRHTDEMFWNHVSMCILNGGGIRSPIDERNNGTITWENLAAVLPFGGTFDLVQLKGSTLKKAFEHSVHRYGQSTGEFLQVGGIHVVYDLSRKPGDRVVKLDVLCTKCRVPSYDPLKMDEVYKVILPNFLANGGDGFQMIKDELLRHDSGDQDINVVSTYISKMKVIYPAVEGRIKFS
Assay: CD73 Enzyme Assay
Assay type: biochemical
Conditions: not given

Compound | IC50 [nM]
CCOP(=O)(COC[C@H]1O[C@@H](n2ccc3c(NC4CCCC4)nc(Cl)nc32)[C@H](O)[C@@H]1O)OCC [Compound 185] | > 1000
O=P(COC[C@H]1O[C@@H](n2ccc3c(NC4CCCC4)nc(Cl)nc32)[C@H](O)[C@@H]1O)(Oc1ccccc1)Oc1ccccc1 [Compound 215] | > 1000

Same assay, conditions: 0.25 nM hCD73, 25 μM AMP, kinetic read at 360 nm; read-out: CD73 Enzyme Assay IC50

Compound | IC50 [nM]
O=P(O)(O)COC[C@H]1O[C@@H](n2cnc3c(N4CCCC4c4ccccc4)ncnc32)[C@H](O)[C@@H]1O (stereo partly drawn) [Compound 45, [(2R,3S,4R,5R)-3,4-dihydroxy-5-[6-(2-phenylpyrrolidin-1-yl)-purin-9-yl]tetrahydro-furan-2-yl]methoxy-methylphosphonic acid] | 100 to 1000
N#Cc1ncnc2c1ncn2[C@@H]1O[C@H](COCP(=O)(O)O)[C@@H](O)[C@H]1O [Compound 47, [(2R,3S,4R,5R)-5-(6-cyanopurin-9-yl)-3,4-dihydroxy-tetrahydro-furan-2-yl]methoxy-methylphosphonic acid] | > 1000
O=P(O)(O)COC[C@H]1O[C@@H](n2cnc3c(O)ncnc32)[C@H](O)[C@@H]1O [Compound 48] | > 1000
C[C@H](Nc1ncnc2c1ncn2[C@@H]1O[C@H](COCP(=O)(O)O)[C@@H](O)[C@H]1O)c1cccc(F)c1 [Compound 50, [(2R,3S,4R,5R)-5-[6-[[(1S)-1-(3-fluoro-phenyl)ethyl]amino]-purin-9-yl]-3,4-dihydroxy-tetrahydro-furan-2-yl]methoxy-methylphosphonic acid] | 100 to 1000
C[C@H](Nc1ncnc2c1ncn2[C@@H]1O[C@H](COCP(=O)(O)O)[C@@H](O)[C@H]1O)c1ccccc1F [Compound 51, [(2R,3S,4R,5R)-5-[6-[[(1S)-1-(2-fluoro-phenyl)ethyl]amino]-purin-9-yl]-3,4-dihydroxy-tetrahydro-furan-2-yl]methoxy-methylphosphonic acid] | 100 to 1000
O=P(O)(O)COC[C@H]1O[C@@H](n2cnc3c(-c4ccccc4F)ncnc32)[C@H](O)[C@@H]1O [Compound 53, [(2R,3S,4R,5R)-5-[6-(2-fluorophenyl)purin-9-yl]-3,4-dihydroxy-tetrahydrofuran-2-yl]methoxymethyl-phosphonic acid] | > 1000
N#Cc1cccc(CNc2ncnc3c2ncn3[C@@H]2O[C@H](COCP(=O)(O)O)[C@@H](O)[C@H]2O)c1 [Compound 58, [(2R,3S,4R,5R)-5-[6-[(3-cyanophenyl)-methylamino]purin-9-yl]-3,4-dihydroxy-tetrahydrofuran-2-yl]-methoxymethylphos-phonic acid] | > 1000
NS(=O)(=O)c1cccc(CNc2ncnc3c2ncn3[C@@H]2O[C@H](COCP(=O)(O)O)[C@@H](O)[C@H]2O)c1 [Compound 63] | > 1000
O=P(O)(O)COC[C@H]1O[C@@H](n2cnc3c(NCc4cccc(CO)c4)ncnc32)[C@H](O)[C@@H]1O [Compound 64, [(2R,3S,4R,5R)-3,4-dihydroxy-5-[6-[[3-(hydroxymethyl)-phenyl]methylamino]-purin-9-yl]tetrahydro-furan-2-yl]methoxy-methylphosphonic acid] | > 1000
NC(=O)c1cccc(CNc2ncnc3c2ncn3[C@@H]2O[C@H](COCP(=O)(O)O)[C@@H](O)[C@H]2O)c1 [Compound 65, [(2R,3S,4R,5R)-5-[6-[(3-carbamoylphenyl)-methylamino]purin-9-yl]-3,4-dihydroxy-tetrahydrofuran-2-yl]-methoxymethylphos-phonic acid] | > 1000
CS(=O)(=O)c1cccc(CNc2ncnc3c2ncn3[C@@H]2O[C@H](COCP(=O)(O)O)[C@@H](O)[C@H]2O)c1 [Compound 66] | > 1000
CNc1nc(C#N)nc2c1ccn2[C@@H]1O[C@H](COCP(=O)(O)O)[C@@H](O)[C@H]1O [Compound 118, [(2R,3S,4R,5R)-5-[2-cyano-4-(methyl-amino)pyrrolo[2,3-d]-pyrimidin-7-yl]-3,4-dihydroxy-tetrahydro-furan-2-yl]methoxy-methylphosphonic acid] | 100 to 1000
O=P(O)(O)C(SC[C@H]1O[C@@H](n2cnc3c(NCc4ccccc4)ncnc32)[C@H](O)[C@@H]1O)c1ccccc1 (stereo partly drawn) [Compound 149, [[(2S,3S,5R)-5-[6-(benzylamino)purin-9-yl]-3,4-dihydroxy-tetrahydrofuran-2-yl]methylsulfanyl-phenylmethyl]phos-phonic acid] | > 1000
O=P(O)(O)C(c1ccccc1)S(=O)(=O)C[C@H]1O[C@@H](n2cnc3c(NCc4ccccc4)ncnc32)[C@H](O)[C@@H]1O (stereo partly drawn) [Compound 150, [[(2S,3S,5R)-5-[6-(benzylamino)purin-9-yl]-3,4-dihydroxy-tetrahydrofuran-2-yl]methylsulfonyl-phenylmethyl]phos-phonic acid] | > 1000
O=P(O)(O)CSC[C@H]1O[C@@H](n2cnc3c(NCc4ccccc4)ncnc32)[C@H](O)[C@@H]1O [Compound 151, [(2S,3S,5R)-5-[6-(benzylamino)purin-9-yl]-3,4-dihydroxy-tetrahydrofuran-2-yl]methylsulfanyl-methylphosphonic acid] | > 1000
CC(C)(C)C(=O)OCOP(=O)(CS(=O)(=O)C[C@H]1O[C@@H](n2ccc3c(NC4CCCC4)nc(Cl)nc32)[C@H](O)[C@@H]1O)OCOC(=O)C(C)(C)C [Compound 165, (((((((2S,3S,4R,5R)-5-(2-chloro-4-(cyclopentylamino)-7H-pyrrolo[2,3-d]pyrimidin-7-yl)-3,4-dihydroxytetrahydrofuran-2-yl)methyl)sulfonyl)methyl)phosphoryl)bis(oxy))bis(methylene) bis(2,2-dimethylpropanoate)] | 100 to 1000
CC(C)(C)C(=O)OCOP(=O)(C[S+]([O-])C[C@H]1O[C@@H](n2ccc3c(NC4CCCC4)nc(Cl)nc32)[C@H](O)[C@@H]1O)OCOC(=O)C(C)(C)C (stereo partly drawn) [Compound 166, [[(2S,3S,4R,5R)-5-[2-chloro-4-(cyclopentyl-amino)pyrrolo[2,3-d]-pyrimidin-7-yl]-3,4-dihydroxy-tetrahydro-furan-2-yl]methyl-sulfinylmethyl-(2,2-dimethylpropanoyloxy-methoxy)phosphoryl]-oxymethyl 2,2-dimethylpropanoate] | > 1000
CC(C)OC(=O)OCOP(=O)(COC[C@H]1O[C@@H](n2ccc3c(N4CC5CCCC5C4)nc(Cl)nc32)[C@H](O)[C@@H]1O)OCOC(=O)OC(C)C (stereo partly drawn) [Compound 208, [[(2R,3S,4R,5R)-5-[4-(3,3a,4,5,6,6a-hexa-hydro-1H-cyclopenta-[c]pyrrol-2-yl)-2-chloro-pyrrolo[2,3-d]-pyrimidin-7-yl]-3,4-dihydroxy-tetrahydro-furan-2-yl]methoxy-methyl-(isopropoxy-carbonyloxymethoxy)-phosphorl]oxymethyl isopropyl carbonate] | > 1000
N#Cc1nc(NC2CCCC2)c2c(C#N)cn([C@@H]3O[C@H](COCP(=O)(O)O)[C@@H](O)[C@H]3O)c2n1 [Compound 210, [(2R,3S,4R,5R)-5-[2,5-dicyano-4-(cyclopentyl-amino)pyrrolo[2,3-d]-pyrimidin-7-yl]-3,4-dihydroxy-tetrahydro-furan-2-yl]methoxy-methylphosphonic acid] | 100 to 1000
CC(C)OC(=O)OCOP(=O)(COC[C@H]1O[C@@H](n2ccc3c(NC4CCCC4)nc(Cl)nc32)[C@H](O)[C@@H]1O)OCOC(=O)OC(C)C [Compound 214, [[(2R,3S,4R,5R)-5-[2-chloro-4-(cyclopentyl-amino)pyrrolo[2,3-d]-pyrimidin-7-yl]-3,4-dihydroxy-tetrahydro-furan-2-yl]methoxy-methyl-(isopropoxy-carbonyloxymethoxy)-phosphoryl]oxymethyl-isopropyl carbonate] | > 1000
C[C@@H](Nc1nc(Cl)nc2c1ncn2[C@@H]1O[C@H](COCP(=O)(O)O)[C@@H](O)[C@@]1(C)O)c1ccccc1 [Compound 216, [(2R,3R,4R,5R)-5-[2-chloro-6-[[(1R)-1-phenylethyl]amino]-purin-9-yl]-3,4-dihydroxy-4-methyl-tetrahydrofuran-2-yl]methoxymethyl-phosphonic acid] | > 1000
O=P(O)(O)COC[C@H]1O[C@@H](n2ccc3c(N[C@H](CO)c4ccccc4)nc(Cl)nc32)[C@H](O)[C@@H]1O [Compound 217, [(2R,3S,4R,5R)-5-[2-chloro-4-[[(1S)-2-hydroxy-1-phenyl-ethyl]amino]pyrrolo-[2,3-d]pyrimidin-7-yl]-3,4-dihydroxy-tetrahydrofuran-2-yl]methoxymethyl-phosphonic acid] | 100 to 1000
CCOC(=O)[C@H](C)NP(=O)(COC[C@H]1O[C@@H](n2ccc3c(NC4CCCC4)nc(Cl)nc32)[C@H](O)[C@@H]1O)N[C@@H](C)C(=O)OCC [Compound 220, ethyl (2S)-2-[[[(2R,3S,4R,5R)-5-[2-chloro-4-(cyclo-pentylamino)pyrrolo-[2,3-d]pyrimidin-7-yl]-3,4-dihydroxy-tetra-hydrofuran-2-yl]-methoxymethyl-[[(1S)-2-ethoxy-1-methyl-2-oxo-ethyl]amino]-phosphoryl]amino]-propanoate] | > 1000

Same assay, conditions: read-out: CD73 Enzyme Assay IC50

Compound | IC50 [nM]
NS(=O)(=O)c1ccc(CNc2ncnc3c2ncn3[C@@H]2O[C@H](COCP(=O)(O)O)[C@@H](O)[C@H]2O)cc1 [Compound 59] | > 1000
O=P(O)(O)CS(=O)(=O)C[C@H]1O[C@@H](n2cnc3c(NCc4ccccc4)ncnc32)[C@H](O)[C@@H]1O [Compound 148] | > 1000
